Holding throughout (assay type): biochemical
One assay concerns the target human thrombin (Homo sapiens, UniProt P00734). Briefly: Inhibition of thrombin hydrolysis of chromogenic substrate S2238 (Ki). More on the design: 0.2-0.5 nM human thrombin or human factor Xa; purchased Enzyme Research Laboratories, South Bend, Ind. The conditions noted are these: purified human thrombin, 0.10 M sodium phosphate buffer, pH 7.5, read-out: Ki values for inhibition of Serine Proteases: Trombin. Here is the method: (§1) The effectiveness of compounds of the present invention as inhibitors of blood coagulation proteases was determined using purified human proteases and synthetic substrates following procedures similar to those described in Kettner et al. (1990).
(§2) For these assays, the rate of enzymatic (thrombin, Factor Xa, and Factor VIIa) hydrolysis of chromogenic substrates (S2238 (H-D-Phe-Pip-Arg-pNA), S2222, and S2288, respectively; Kabi Pharmacia, Franklin, Ohio) was measured both in the absence and presence of compounds of the present invention. […] A decrease in the rate of absorbance change at 405 nm in the presence of inhibitor is indicative of enzyme inhibition. The results of this assay are expressed as inhibitory constant, Ki.
(§3) Thrombin and Xa determinations were made in 0.10 M sodium phosphate buffer, pH 7.5, containing 0.20 M NaCl, and 0.5% PEG 8000. VIIa determinations were made in 0.05 M tris buffer, pH 7.6, containing 0.10 M NaCl, 4 mM CaCl2, and 0.1% bovine serum albumin.
(§4) Reactions were allowed to go for 30 minutes and the velocities (rate of absorbance change vs time) were measured in the time frame of 25-30 minutes. The following relationship was used to calculate Ki values. [formula] where: vo is the velocity of the control in the absence of inhibitor;
(§5) vs is the velocity in the presence of inhibitor;
(§6) I is the concentration of inhibitor;
(§7) Ki is the dissociation constant of the enzyme: inhibitor complex;
(§8) S is the concentration of substrate;
(§9) Km is the Michaelis constant.

The next assay deals with T1, human factor VIIa (Homo sapiens, UniProt P08709).
T1 construct: 50 nM human factor VIIa (BiosPacific, Emeryville, Calif.); purchased BiosPacific, Emeryville, Calif
T1 sequence (P08709 213-466 limits assumed): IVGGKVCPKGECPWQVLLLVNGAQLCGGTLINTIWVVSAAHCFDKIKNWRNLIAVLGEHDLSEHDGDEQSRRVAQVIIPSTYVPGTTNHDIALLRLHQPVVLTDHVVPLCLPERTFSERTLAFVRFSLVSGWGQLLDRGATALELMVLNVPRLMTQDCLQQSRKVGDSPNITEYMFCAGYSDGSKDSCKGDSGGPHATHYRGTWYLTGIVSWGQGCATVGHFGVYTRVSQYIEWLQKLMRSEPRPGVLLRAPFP
T1 sequence (P08709 61-212 partner limits assumed): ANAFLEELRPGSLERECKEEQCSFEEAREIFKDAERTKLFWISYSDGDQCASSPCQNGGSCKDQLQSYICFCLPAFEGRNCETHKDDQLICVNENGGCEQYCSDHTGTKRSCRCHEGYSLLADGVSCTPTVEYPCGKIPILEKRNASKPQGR
Briefly: Inhibition of Factor VIIa hydrolysis of chromogenic substrate S2288 (Ki). The conditions noted are these: purified human factor VIIa, 0.05 M tris buffer; for Ki: pH 7.6, read-out: Ki values for inhibition of Serine Proteases: Factor VIIa; for Ki values for inhibition of Serine Proteases: Factor VIIa: pH 7.6. Here is the method:
as §1, §2, §3, §4, §5, §6, §7, §8, §9

In another assay the target is T2, human factor Xa (Homo sapiens, UniProt P00742).
T2 construct: 0.2-0.5 nM human thrombin or human factor Xa; purchased Enzyme Research Laboratories, South Bend, Ind
T2 sequence (P00742 235-488 limits assumed): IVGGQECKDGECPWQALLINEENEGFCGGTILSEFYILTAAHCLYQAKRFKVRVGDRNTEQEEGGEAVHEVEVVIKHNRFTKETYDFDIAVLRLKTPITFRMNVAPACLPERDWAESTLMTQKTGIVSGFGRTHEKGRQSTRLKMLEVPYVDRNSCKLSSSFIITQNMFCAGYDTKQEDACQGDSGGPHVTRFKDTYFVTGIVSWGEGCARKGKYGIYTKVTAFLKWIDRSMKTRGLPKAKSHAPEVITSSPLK
T2 sequence (P00742 41-179 partner limits assumed): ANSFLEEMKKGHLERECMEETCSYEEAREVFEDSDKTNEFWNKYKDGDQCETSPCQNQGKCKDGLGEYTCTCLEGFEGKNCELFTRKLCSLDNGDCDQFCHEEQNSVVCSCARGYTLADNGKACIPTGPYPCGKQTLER
As to the kind of experiment: Inhibition of Factor Xa hydrolysis of chromogenic substrate S2222 (Ki). The conditions noted are these: purified human factor Xa, 0.10 M sodium phosphate buffer; for Ki: pH 7.5, read-out: Ki values for inhibition of Serine Proteases: Factor Xa; for Ki values for inhibition of Serine Proteases: Factor Xa: pH 7.5. The protocol: as §1, §2, §3, §4, §5, §6, §7, §8, §9

Where a name gives a salt, the structure may show the parent alone. A value given as a limit tells only on which side of the number the result lay.

The results in this text go back to patent US6060462A, “Electrophilic peptide analogs as inhibitors of trypsin-like enzymes” (DuPont Pharmaceuticals Company, priority 1997, dated 2000).

The Ki is the dissociation constant of the complex between target and ligand, obtained from inhibition or displacement.

For the compound `COC(=O)CCC(NC(=O)OC(C)(C)C)C(=O)N(CCc1ccccc1)CC(=O)NC(CCCCN)B1OC2CC3CC(C3(C)C)C2(C)O1` (stereo not drawn) [Example 69.2.3, Boc-Glu(OCH3)-[N-(Phenethyl)-Gly]-boroLys--C10H16 HCl], the values for the Ki on human thrombin and at human factor VIIa were less than 500 nM and less than 50000 nM, respectively. Take “Pinanediol N-{N-methyl-N-[2-(Thiophenyl)-Benzoyl]Sar}-1-amido-5-thiocyanatobutane boronate [Example 63.5.1]”: the Ki on human thrombin and at human factor Xa was less than 50000 nM in each case. Also, the “Ki values for inhibition of Serine Proteases: Factor VIIa” value (from here on “Ki values for inhibition … Factor VIIa”) at human factor VIIa was “inactive”.

As to `CC1(C)C2CC3OB(C(CCCNC(=N)N)NC(=O)CN(CCc4ccccc4C4CC4)C(=O)CCc4ccccc4)OC3(C)C1C2` (stereo not drawn) [Example 56.1.2, Hydrocinnamoyl-[N-(2-(Cyclopropyl)-Phenethyl)--Gly]-boroArg-C10H16 HCl], the Ki on human thrombin, on human factor Xa and at human factor VIIa was less than 500 nM throughout. On to `CN(CC(=O)NC(CCCNC(=N)N)B(O)O)C(=O)c1ccccc1Sc1ccccc1C#N` (stereo not drawn) [Example 75.3.1, (2-(2-Cyano)-Thiophenyl)-Benzoyl-Sar-boroArg--OH HCl], for which the Ki on human factor VIIa was less than 500 nM. On to `CN(CC(=O)NC(CCCCBr)B1OC2CC3CC(C3(C)C)C2(C)O1)C(=O)c1ccccc1Sc1ccccc1C#N` (stereo not drawn) [Example 62.1.2], for which the Ki at human thrombin, on human factor Xa and at human factor VIIa was less than 50000 nM each time. Consider `NCCCCC(NC(=O)CN(C(=O)CCc1ccccc1)C1CCCCC1)B(O)O` (stereo not drawn) [Example 53.4.3, Hydrocinnamoyl-[N-(Cyclohexyl)-Gly]-boroLys--OH HCl], for which the Ki was less than 500 nM at human thrombin, less than 50000 nM at human factor Xa and less than 500 nM at human factor VIIa.

Take “Hydrocinnamoyl-Sar-Lys--C(=O)--CH3 HCl [Example 61.2.3]”: the “Ki values for inhibition of Serine Proteases: Factor Xa” value on human factor Xa is given as “Inactive”. Further, the “Ki values for inhibition … Factor VIIa” value on human factor VIIa is on record as “Inactive”. As for `CC(c1ccccc1)N(CC(=O)NC(CCCCN)B1OC2CC3CC(C3(C)C)C2(C)O1)C(=O)CNS(C)(=O)=O` (stereo not drawn) [Example 67.3.2, Methanesylfonyl-Gly-[N-(N-(Methyl)-Benzyl)-Gly]-boroLys-C10H16 HCl], on human thrombin, the Ki was less than 500 nM. On to `CN(CC(=O)NC(CCCSC(=N)N)B1OC2CC3CC(C3(C)C)C2(C)O1)C(=O)c1ccccc1Sc1ccccc1` (stereo not drawn) [Example 63.1.3, 2-(Thiophenyl)-Benzoyl-Sar-boroIrg-C10H16 HBr], for which the Ki at human thrombin was less than 500 nM; at human factor Xa it was less than 500 nM; at human factor VIIa it was less than 50000 nM. `CC1(C)C2CC3OB(C(CCCN)NC(=O)CN(CCc4ccccc4)C(=O)CCc4ccccc4)OC3(C)C1C2.Cl` (stereo not drawn) [Example 49.1.1, Hydrocinnamoyl-[N-(Phenethyl)-Gly]-boroOrn-C10H16HCl]: the Ki was less than 500 nM at human thrombin and less than 50000 nM on human factor Xa. At human factor VIIa, the “Ki values for inhibition … Factor VIIa” value was “inactive”. With “Hydrocinnamoyl-Sar-Lys[C(O)CO2 H] [Example 61.1.1]”, the figures for the Ki at human thrombin, on human factor Xa and on human factor VIIa were less than 500 nM, less than 50000 nM and less than 50000 nM, respectively.

Regarding “Hydrocinnamoyl-Sar-Lys--C(=O)--OCH3 HCl [Example 61.2.1]”, the Ki at human thrombin, at human factor Xa and on human factor VIIa was less than 50000 nM throughout. Regarding `CN(CC(=O)NC(CCCCN=[N+]=[N-])B1OC2CC3CC(C3(C)C)C2(C)O1)C(=O)c1ccccc1Sc1ccccc1C#N` (stereo not drawn) [Example 62.2.3], the Ki on human thrombin, at human factor Xa and at human factor VIIa was less than 50000 nM throughout. Turning to “Hydrocinnamoyl-Sar-Lys(Z)--C(=O)--O-(CH2)2--NH(Z) [Example 61.1.2]”, the Ki at human thrombin was less than 50000 nM. Moreover, the “Ki values for inhibition of Serine Proteases: Factor Xa” value on human factor Xa is “Inactive”. In addition, the “Ki values for inhibition … Factor VIIa” value on human factor VIIa is given as “Inactive”. Take `CC1(C)C2CC3OB(C(CCCN)NC(=O)CN(C(=O)CCc4ccccc4)C4CC4)OC3(C)C1C2` (stereo not drawn) [Example 60.4.2, Hydrocinnamoyl-[N-(Cyclopropyl)-Gly]-boroOrn-C10H16 HCl]: the Ki on human thrombin is less than 500 nM. For the compound “Hydrocinnamoyl-[N-(Cyclopropyl)-Gly]-boroLys(CH=NH)--OH HCl [Example 76.1.1]”, the Ki on human thrombin is less than 500 nM. Turning to `CN(CC(=O)N(CCc1ccccc1)CC(=O)NC(CCCCN)B1OC2CC3CC(C3(C)C)C2(C)O1)S(C)(=O)=O` (stereo not drawn) [Example 69.4.2, Methanesulfonyl-Sar-[N-(Phenethyl)-Gly]-boroLys-C10H16 HCl], on human thrombin, the Ki was less than 500 nM. As for `CC(C)(CN(CC(=O)NC(CCCCN)B1OC2CC3CC(C3(C)C)C2(C)O1)C(=O)CCc1ccccc1)c1ccccc1` (stereo not drawn) [Example 54.3.3, Hydrocinnamoyl-[N-(2,2-(Dimethyl)-Phenethyl)-Gly]-boroLys-C10H16 HCl], the Ki is less than 50000 nM at human factor Xa and less than 500 nM at human factor VIIa. For `Cc1cc(C)cc(CCN(CC(=O)NC(CCCCN)B2OC3CC4CC(C4(C)C)C3(C)O2)C(=O)CCc2ccccc2)c1` (stereo not drawn) [Example 54.4.1, Hydrocinnamoyl-{N-[2-(3,5-dimethylphenyl)-ethyl]-Gly}-boroLys-C10H16 HCl] the same measures were less than 50000 nM and less than 50000 nM. As to `CC(C)(CN(CC(=O)NC(CCCCN)B1OC2CC3CC(C3(C)C)C2(C)O1)C(=O)CCc1ccccc1)c1ccccc1` (stereo not drawn) [Example 54.1.1, Hydrocinnamoyl-[N-(2,2-(Dimethyl)-Phenethyl)-Gly]-boroLys-C10H16 HCl], the Ki at human thrombin was less than 500 nM.

As to “Hydrocinnamoyl-[N-(Cyclopropyl)-Gly]-boroOrn(CH=NH)-C10H16 HCl [Example 58.4.2]”, the Ki on human thrombin is less than 50000 nM.

`CC(C)(CN(CC(=O)NC(CCCN)B1OC2CC3CC(C3(C)C)C2(C)O1)C(=O)CCc1ccccc1)c1ccccc1` (stereo not drawn) [Example 60.1.1, Hydrocinnamoyl-[N-(2,2-(Dimethyl)-Phenethyl)-Gly]-boroOrn-C10H16 HCl]: the Ki was less than 500 nM on human thrombin and less than 50000 nM at human factor Xa. Take `CC(C)(CC(=O)O)CC(=O)N(CCc1ccccc1)CC(=O)NC(CCCCN)B(O)O` (stereo not drawn) [Example 66.1.2, Glutaryl(3,3-Dimethyl)-[N-(Phenethyl)-Gly]-boroLys--OH]: the figures for the Ki at human thrombin and at human factor VIIa were less than 500 nM and less than 50000 nM, respectively. For the compound `CC(C)(C)OC(=O)NC(CCC(=O)O)C(=O)N(CCc1ccccc1)CC(=O)NC(CCCCN)B1OC2CC3CC(C3(C)C)C2(C)O1` (stereo not drawn) [Example 69.2.1, Boc-Glu-[N-(Phenethyl)-Gly]-boroLys-C10H16], the Ki at human thrombin and at human factor VIIa was less than 500 nM throughout.

On to `COC(=O)CC(C)(C)CC(=O)N(CCc1ccccc1)CC(=O)NC(CCCCN)B(O)O` (stereo not drawn) [Example 66.1.3, Methyl Glutaryl(3,3-Dimethyl)-[N-(Phenethyl)-Gly]-boroLys--OH HCl], for which the Ki at human thrombin is less than 500 nM; at human factor VIIa, less than 50000 nM. In the same order, the values of `CC(C)(C)OC(=O)NC(CC(=O)O)C(=O)N(CCc1ccccc1)CC(=O)NC(CCCCN)B1OC2CC3CC(C3(C)C)C2(C)O1` (stereo not drawn) [Example 69.2.2, Boc-Asp-[N-(Phenethyl)-Gly]-boroLys-C10H16] are less than 500 nM and less than 500 nM. Turning to “Hydrocinnamoyl-[N-(Cyclopropyl)-Gly]-boroLys(CH=NH)-C10H16 HCl [Example 77.1.1]”, the inhibitory constant (Ki) at human thrombin is less than 500 nM. With `CN(CC(=O)N(CCc1ccccc1)CC(=O)NC(CCCCN)B(O)O)S(C)(=O)=O` (stereo not drawn) [Example 68.4.2], the Ki at human thrombin was less than 500 nM.

With `Cc1cccc(CCN(CC(=O)NC(CCCCN)B2OC3CC4CC(C4(C)C)C3(C)O2)C(=O)CCc2ccccc2)c1` (stereo not drawn) [Example 51.1.2, Hydrocinnamoyl-[N-(3-(Methyl)-Phenethyl)-Gly]-boroLys-C10H16 HCl], the Ki on human thrombin was less than 500 nM. With “Hydrocinnamoyl-[N-(N(CH3)2)-Gly]-boroLys--C10H16 HCl [Example 50.1.3]”, the Ki on human thrombin is less than 500 nM. The same measure, in the same setting: the value for “2-(2-(Trifluoromethyl)-Benzyl)-Benzoyl-Sar-Lys--C(=O)--NHNH2 2 HCl [Example 71.4.2]” was less than 50000 nM.
